Test results: patent EP0394553A2, “Use of fluorine containing pyridone carboxylic acid derivatives for preparing a medicament for the treatment of HIV infections” (DAIICHI PHARMACEUTICAL CO., LTD., priority 1989, dated 1990)
Read-outs that look alike come from different tables or passages of the source.

Test system: HIV (LAV 1)
Test: microbe, parasite or virus in culture
Conditions: for viability at 1 µg/mL / viability at 2.5 µg/mL / viability at 5 µg/mL / viability at 10 µg/mL: Human immunodeficiency virus 1, CCRF-CEM
Procedure, shortened: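 CEM cells were infected with HIV LAV 1 at MOI 0.05 and cultured with test substance at 10, 5, 2.5 or 1 mcg/ml, with medium exchanged periodically up to 30 days. Viable cell count and percentage were measured by trypan blue, and antigen-positive cells by immunofluorescence with anti-HIV antiserum, at 4–30 days. Values are means of two wells.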

[1] = 1 mcg/ml, 4-day addition, after 4 days
[2] = 1 mcg/ml, 4-day addition, after 7 days
[3] = 1 mcg/ml, 4-day addition, after 10 days
[4] = 1 mcg/ml, 4-day addition, after 30 days
[5] = 1 mcg/ml, continuous addition, after 4 days
[6] = 1 mcg/ml, continuous addition, after 7 days
[7] = 1 mcg/ml, continuous addition, after 10 days
[8] = 1 mcg/ml, continuous addition, after 30 days
[9] = 2.5 mcg/ml, 4-day addition, after 4 days
[10] = 2.5 mcg/ml, 4-day addition, after 7 days
[11] = 2.5 mcg/ml, 4-day addition, after 10 days
[12] = 2.5 mcg/ml, 4-day addition, after 20 days
[13] = 2.5 mcg/ml, 4-day addition, after 30 days
[14] = 2.5 mcg/ml, continuous addition, after 4 days
[15] = 2.5 mcg/ml, continuous addition, after 7 days
[16] = 2.5 mcg/ml, continuous addition, after 10 days
[17] = 2.5 mcg/ml, continuous addition, after 20 days
[18] = 2.5 mcg/ml, continuous addition, after 30 days
[19] = 5 mcg/ml, 4-day addition, after 4 days
[20] = 5 mcg/ml, 4-day addition, after 7 days
[21] = 5 mcg/ml, 4-day addition, after 10 days
[22] = 5 mcg/ml, 4-day addition, after 20 days
[23] = 5 mcg/ml, 4-day addition, after 30 days
[24] = 5 mcg/ml, continuous addition, after 4 days
[25] = 5 mcg/ml, continuous addition, after 7 days
[26] = 5 mcg/ml, continuous addition, after 10 days
[27] = 5 mcg/ml, continuous addition, after 20 days
[28] = 5 mcg/ml, continuous addition, after 30 days
[29] = 10 mcg/ml, 4-day addition, after 4 days
[30] = 10 mcg/ml, 4-day addition, after 7 days
[31] = 10 mcg/ml, 4-day addition, after 10 days
[32] = 10 mcg/ml, 4-day addition, after 20 days
[33] = 10 mcg/ml, 4-day addition, after 30 days
[34] = 10 mcg/ml, continuous addition, after 4 days
[35] = 10 mcg/ml, continuous addition, after 7 days
[36] = 10 mcg/ml, continuous addition, after 10 days
[37] = 10 mcg/ml, continuous addition, after 20 days
[38] = 10 mcg/ml, continuous addition, after 30 days

C[C@H]1COc2c(N3CCN(C)CC3)c(F)cc3c(=O)c(C(=O)O)cn1c23 [DR-3355, (-)-(S)-9-fluoro-2,3-dihydro-3-methyl-10-(4-methyl-1-piperazinyl)-7-oxo-7H-pyrido[1,2,3-de][1,4]benzoxazine-6-carboxylic acid hemihydrate]
Viable cell count [1]: 220 × 10⁴ cells/ml | Viral antigen-positive cell percentage [1]: 91% | Viable cell count [2]: 71 × 10⁴ cells/ml | Viral antigen-positive cell percentage [2]: 61% | Viable cell count [3]: 54 × 10⁴ cells/ml | Viral antigen-positive cell percentage [3]: 56% | Viable cell count (1 mcg/ml, 4-day addition, after 20 days): 3 × 10⁴ cells/ml | Viable cell count [4]: 68 × 10⁴ cells/ml | Viral antigen-positive cell percentage [4]: 16% | Viable cell count [5]: 190 × 10⁴ cells/ml | Viral antigen-positive cell percentage [5]: 88% | Viable cell count [6]: 65 × 10⁴ cells/ml | Viral antigen-positive cell percentage [6]: 52% | Viable cell count [7]: 110 × 10⁴ cells/ml | Viral antigen-positive cell percentage [7]: 43% | Viable cell count (1 mcg/ml, continuous addition, after 20 days): 11 × 10⁴ cells/ml | Viable cell count [8]: 360 × 10⁴ cells/ml | Viral antigen-positive cell percentage [8]: 15% | Viable cell count [9]: 190 × 10⁴ cells/ml | Viral antigen-positive cell percentage [9]: 88% | Viable cell count [10]: 76 × 10⁴ cells/ml | Viral antigen-positive cell percentage [10]: 53% | Viable cell count [11]: 280 × 10⁴ cells/ml | Viral antigen-positive cell percentage [11]: 44% | Viable cell count [12]: 230 × 10⁴ cells/ml | Viral antigen-positive cell percentage [12]: 30% | Viable cell count [13]: 130 × 10⁴ cells/ml | Viral antigen-positive cell percentage [13]: 10% | Viable cell count [14]: 210 × 10⁴ cells/ml | Viral antigen-positive cell percentage [14]: 87% | Viable cell count [15]: 53 × 10⁴ cells/ml | Viral antigen-positive cell percentage [15]: 51% | Viable cell count [16]: 290 × 10⁴ cells/ml | Viral antigen-positive cell percentage [16]: 25% | Viable cell count [17]: 390 × 10⁴ cells/ml | Viral antigen-positive cell percentage [17]: 35% | Viable cell count [18]: 270 × 10⁴ cells/ml | Viral antigen-positive cell percentage [18]: 11% | Viable cell count [19]: 190 × 10⁴ cells/ml | Viral antigen-positive cell percentage [19]: 90% | Viable cell count [20]: 78 × 10⁴ cells/ml | Viral antigen-positive cell percentage [20]: 59% | Viable cell count [21]: 320 × 10⁴ cells/ml | Viral antigen-positive cell percentage [21]: 33% | Viable cell count [22]: 190 × 10⁴ cells/ml | Viral antigen-positive cell percentage [22]: 36% | Viable cell count [23]: 360 × 10⁴ cells/ml | Viral antigen-positive cell percentage [23]: 2% | Viable cell count [24]: 160 × 10⁴ cells/ml | Viral antigen-positive cell percentage [24]: 87% | Viable cell count [25]: 51 × 10⁴ cells/ml | Viral antigen-positive cell percentage [25]: 53% | Viable cell count [26]: 260 × 10⁴ cells/ml | Viral antigen-positive cell percentage [26]: 37% | Viable cell count [27]: 320 × 10⁴ cells/ml | Viral antigen-positive cell percentage [27]: 29% | Viable cell count [28]: 210 × 10⁴ cells/ml | Viral antigen-positive cell percentage [28]: 4% | Viable cell count [29]: 170 × 10⁴ cells/ml | Viral antigen-positive cell percentage [29]: 88% | Viable cell count [30]: 50 × 10⁴ cells/ml | Viral antigen-positive cell percentage [30]: 57% | Viable cell count [31]: 280 × 10⁴ cells/ml | Viral antigen-positive cell percentage [31]: 31% | Viable cell count [32]: 230 × 10⁴ cells/ml | Viral antigen-positive cell percentage [32]: 19% | Viable cell count [33]: 320 × 10⁴ cells/ml | Viral antigen-positive cell percentage [33]: ≦1% | Viable cell count [34]: 160 × 10⁴ cells/ml | Viral antigen-positive cell percentage [34]: 89% | Viable cell count [35]: 43 × 10⁴ cells/ml | Viral antigen-positive cell percentage [35]: 55% | Viable cell count [36]: 220 × 10⁴ cells/ml | Viral antigen-positive cell percentage [36]: 31% | Viable cell count [37]: 260 × 10⁴ cells/ml | Viral antigen-positive cell percentage [37]: 21% | Viable cell count [38]: 260 × 10⁴ cells/ml | Viral antigen-positive cell percentage [38]: 4% | viability at 1 µg/mL (96 h, read-out: Viable cell percentage, 1 mcg/ml, 4-day addition, after 4 days): 95% | viability at 1 µg/mL (96 h, read-out: Viable cell percentage, 1 mcg/ml, continuous addition, after 4 days): 94% | viability at 2.5 µg/mL (96 h, read-out: Viable cell percentage, 2.5 mcg/ml, 4-day addition, after 4 days): 94% | viability at 2.5 µg/mL (96 h, read-out: Viable cell percentage, 2.5 mcg/ml, continuous addition, after 4 days): 94% | viability at 5 µg/mL (96 h, read-out: Viable cell percentage, 5 mcg/ml, 4-day addition, after 4 days): 91% | viability at 5 µg/mL (96 h, read-out: Viable cell percentage, 5 mcg/ml, continuous addition, after 4 days): 89% | viability at 10 µg/mL (96 h, read-out: Viable cell percentage, 10 mcg/ml, 4-day addition, after 4 days): 92% | viability at 10 µg/mL (96 h, read-out: Viable cell percentage, 10 mcg/ml, continuous addition, after 4 days): 91% | viability at 1 µg/mL (168 h, read-out: Viable cell percentage, 1 mcg/ml, continuous addition, after 7 days): 69% | viability at 2.5 µg/mL (168 h, read-out: Viable cell percentage, 2.5 mcg/ml, continuous addition, after 7 days): 68% | viability at 5 µg/mL (168 h, read-out: Viable cell percentage, 5 mcg/ml, continuous addition, after 7 days): 66% | viability at 10 µg/mL (168 h, read-out: Viable cell percentage, 10 mcg/ml, continuous addition, after 7 days): 75% | viability at 1 µg/mL (240 h, read-out: Viable cell percentage, 1 mcg/ml, continuous addition, after 10 days): 61% | viability at 2.5 µg/mL (240 h, read-out: Viable cell percentage, 2.5 mcg/ml, continuous addition, after 10 days): 94% | viability at 5 µg/mL (240 h, read-out: Viable cell percentage, 5 mcg/ml, continuous addition, after 10 days): 95% | viability at 10 µg/mL (240 h, read-out: Viable cell percentage, 10 mcg/ml, continuous addition, after 10 days): 92% | viability at 1 µg/mL (480 h, read-out: Viable cell percentage, 1 mcg/ml, continuous addition, after 20 days): 50% | viability at 2.5 µg/mL (480 h, read-out: Viable cell percentage, 2.5 mcg/ml, continuous addition, after 20 days): 95% | viability at 5 µg/mL (480 h, read-out: Viable cell percentage, 5 mcg/ml, continuous addition, after 20 days): 89% | viability at 10 µg/mL (480 h, read-out: Viable cell percentage, 10 mcg/ml, continuous addition, after 20 days): 87% | viability at 1 µg/mL (read-out: Viable cell percentage, 1 mcg/ml, 4-day addition, after 7 days): 70% | viability at 1 µg/mL (read-out: Viable cell percentage, 1 mcg/ml, 4-day addition, after 10 days): 61% | viability at 1 µg/mL (read-out: Viable cell percentage, 1 mcg/ml, 4-day addition, after 20 days): 20% | viability at 1 µg/mL (read-out: Viable cell percentage, 1 mcg/ml, 4-day addition, after 30 days): 98% | viability at 1 µg/mL (read-out: Viable cell percentage, 1 mcg/ml, continuous addition, after 30 days): 98% | viability at 2.5 µg/mL (read-out: Viable cell percentage, 2.5 mcg/ml, 4-day addition, after 7 days): 80% | viability at 2.5 µg/mL (read-out: Viable cell percentage, 2.5 mcg/ml, 4-day addition, after 10 days): 92% | viability at 2.5 µg/mL (read-out: Viable cell percentage, 2.5 mcg/ml, 4-day addition, after 20 days): 87% | viability at 2.5 µg/mL (read-out: Viable cell percentage, 2.5 mcg/ml, 4-day addition, after 30 days): 83% | viability at 2.5 µg/mL (read-out: Viable cell percentage, 2.5 mcg/ml, continuous addition, after 30 days): 88% | viability at 5 µg/mL (read-out: Viable cell percentage, 5 mcg/ml, 4-day addition, after 7 days): 76% | viability at 5 µg/mL (read-out: Viable cell percentage, 5 mcg/ml, 4-day addition, after 10 days): 95% | viability at 5 µg/mL (read-out: Viable cell percentage, 5 mcg/ml, 4-day addition, after 20 days): 87% | viability at 5 µg/mL (read-out: Viable cell percentage, 5 mcg/ml, 4-day addition, after 30 days): 92% | viability at 5 µg/mL (read-out: Viable cell percentage, 5 mcg/ml, continuous addition, after 30 days): 75% | viability at 10 µg/mL (read-out: Viable cell percentage, 10 mcg/ml, 4-day addition, after 7 days): 68% | viability at 10 µg/mL (read-out: Viable cell percentage, 10 mcg/ml, 4-day addition, after 10 days): 94% | viability at 10 µg/mL (read-out: Viable cell percentage, 10 mcg/ml, 4-day addition, after 20 days): 85% | viability at 10 µg/mL (read-out: Viable cell percentage, 10 mcg/ml, 4-day addition, after 30 days): 92% | viability at 10 µg/mL (read-out: Viable cell percentage, 10 mcg/ml, continuous addition, after 30 days): 83%
